These results are taken from patent EP0536208B1, “1,2-DIHYDRO-3H-DIBENZISOQUINOLINE-1,3-DIONE ANTICANCER AGENTS” (RESEARCH CORPORATION TECHNOLOGIES, INC., priority 1990, dated 1992).

One experiment relates to Resistant L1210. As to the kind of experiment: In vitro tumor cell viability assay using MTT dye. It counts as cell-based, Murine. As to conditions: for IC50: Mus musculus. As to the method: Compounds of the present invention were tested for their in vitro activity in tumor cells sensitive and resistant to standard anti-cancer agents. The tumor cell lines used in this protocol are 8226 human Myeloma^1; 8226/Dox-40^2, L-1210/Murine Leukemia, multidrug resistant L-210/^3, 2780 Human Ovarian Cancer and 2780/AD^4. Each of these resistant cell lines is known as a multidrug resistant or "MDR" cell line. These cell lines produce a 170,00 molecular weight membrane protein termed the P-glycoprotein which acts as an active drug efflux pump. Thus, once a cell produces the P-glycoprotein, it has the capability of pumping out of the cell a large variety of unrelated natural products. […] The protocol for measuring the effectiveness of compounds of the present invention is as follows: 2) In Vitro Tumor Cell Viability Assays Using MTT-Dye: Tumors are processed into a single cell suspension as described above. The cells are plated at a concentration of 3-5 X 10^4/1 mL well into plastic 96-well plates. […] Afterwards the medium containing the drug is removed, the cells are "washed" by centrifugation in fresh medium or phosphate-buffered saline (pH 7.4). A tetrazolium dye is then added (3,4,5-dimethylthiazol-2-yl)-2,5-diphenyl tetrazolium bromide (MTT). This dye forms a colored formazan product upon activation by mitochondrial reductases in viable cells. Typically, the formazan product is solubilized in acid-propanol or DMSO. The intensity of the color is proportional to viable cell numbers and this is quantitated by spectrophotometric absorbance ([…]) on a micro ELISA plate reader. Test results are calibrated in % control absorbance from untreated tumor cells (Mossman T: J Immunol Meth 65:55-63, 1983). Using the above procedure, Compound 1 was tested for its cytotoxic activity with respect to various tumor cell lines.
For orientation: Tetrazolium assays rely on reduction of a dye to a coloured formazan, in cell work by metabolically active cells.

A further experiment concerns 205p14. As to the kind of experiment: Activity against human colon tumor cells (MTT assay, 3 day drug exposure). It counts as cell-based. Particulars: cells plated 24 hr. prior to drug addition, read-out: Concentration for 50% inhibition of colony formation for human colon tumors. As to the method:
(§1) For example, the compounds of the present invention were evaluated for cytotoxic activities in cloned human colon carcinomas. The clonogenic assays were conducted in accordance with the procedure described hereinbelow: 1) Colony Forming Assays in Soft Agar: Fresh human or murine tumors are disaggregated into single cell suspensions using mechanical, hypoosmotic and/or enzymatic (trypsin) methods. The single cells (about 5 X 10^4-10^5) are plated in 35 mm plastic petri dishes onto a 1 ml "feeder layer" of 0.3% agar dissolved in growth medium containing 5-10% vol/vol of heat-inactivated fetal bovine serum, molten 0.3% agar and the antibiotics penicillin (100 u/mL) and streptomycin (100 ug/mL). Drug exposures can be performed for one hour or continuously (drugs added to final plating medium). Tumor cell colonies > 60 uM in size are counted by automated image analysis after 10-20 days of incubation in a humidified, 5-10% CO2-gassed environment maintained at 37°C. Inhibition of colony formation is calculated based on comparisons to control (untreated) plates wherein the growth of hundreds of colonies/plate is typical. (Salmon SE, et al., N Engl J Med 298(24):1321-1327, 1978).
(§2) Compounds of the present invention were tested for their in vitro activity in tumor cells sensitive and resistant to standard anti-cancer agents. The tumor cell lines used in this protocol are 8226 human Myeloma^1; 8226/Dox-40^2, L-1210/Murine Leukemia, multidrug resistant L-210/^3, 2780 Human Ovarian Cancer and 2780/AD^4. Each of these resistant cell lines is known as a multidrug resistant or "MDR" cell line. These cell lines produce a 170,00 molecular weight membrane protein termed the P-glycoprotein which acts as an active drug efflux pump. Thus, once a cell produces the P-glycoprotein, it has the capability of pumping out of the cell a large variety of unrelated natural products. […] The protocol for measuring the effectiveness of compounds of the present invention is as follows: 2) In Vitro Tumor Cell Viability Assays Using MTT-Dye: Tumors are processed into a single cell suspension as described above. The cells are plated at a concentration of 3-5 X 10^4/1 mL well into plastic 96-well plates. Growth medium containing 5-10% (vol/vol) heat-inactivated fetal bovine serum and penicillin/streptomycin (as above) is added prior to incubation at 37°C for six days. Afterwards the medium containing the drug is removed, the cells are "washed" by centrifugation in fresh medium or phosphate-buffered saline (pH 7.4). A tetrazolium dye is then added (3,4,5-dimethylthiazol-2-yl)-2,5-diphenyl tetrazolium bromide (MTT). This dye forms a colored formazan product upon activation by mitochondrial reductases in viable cells. Typically, the formazan product is solubilized in acid-propanol or DMSO. The intensity of the color is proportional to viable cell numbers and this is quantitated by spectrophotometric absorbance ([…]) on a micro ELISA plate reader. Test results are calibrated in % control absorbance from untreated tumor cells (Mossman T: J Immunol Meth 65:55-63, 1983). Using the above procedure, Compound 1 was tested for its cytotoxic activity with respect to various tumor cell lines.

The subject of another experiment is LOVOp32. The experiment is described as above. Particulars: cells plated 24 hr. prior to drug addition, read-out: Concentration for 50% inhibition of colony formation for human colon tumors. It is filed as cell-based. As to the method:
as §1, §2

For the next experiment, the system named is FRESH HUMAN TUMORS. In words: Colony forming assay in fresh human tumors, all tumor types. It counts as cell-based. Particulars: Total of all tumor types; .001 ug/mL continuously; tumor cell survival of less than 50% of control. As to the method:
as §1, with “The” for “For example, the compounds of the present invention were evaluated for cytotoxic activities in cloned human colon carcinomas. The”, “(Salmon SE, et al., N Engl J Med 298(24):1321-1327, 1978).” left out
(§3) Fresh human tumor specimens disaggregated to single cell suspensions and exposed to .001 ug/mL of drug continuously. Percent survival represents the fraction of tumor colonies (> 60 uM size) obtained after drug treatment compared to untreated cells of the same tumor. […] Each tumor sample is analyzed in three different petri dishes (i.e., n = 3 for each sample).

A further experiment concerns Melanoma. As to the kind of experiment: Colony forming assay in fresh human tumors. It is filed as cell-based. As to conditions: .001 ug/mL continuously, tumor cell survival of less than 50% of control. As to the method: as §1, with “The” for “For example, the compounds of the present invention were evaluated for cytotoxic activities in cloned human colon carcinomas. The”, “(Salmon SE, et al., N Engl J Med 298(24):1321-1327, 1978).” left out
as §3

Values after ≈ are worked out from the molar mass of the structure shown. Read-outs that look alike come from different tables or passages of the source.

Turning to `CN(C)CCN1C(=O)c2cccc3cc4ccccc4c(c23)C1=O` [Compound 1, 2-[2'-(dimethylamino)ethyl]-1,2-dihydro-3H-dibenz(deh)isoquinoline-1,3-dione], the IC50 was determined as 2.5 ng/mL (≈ 7.85 nM) in the experiment with Resistant L1210 (144 h, Resistant L1210, six day MTT assay, continuous drug exposure, read-out: Concentration for 50% inhibition of tumor cells); 3 ng/mL (≈ 9.42 nM) in the experiment with Resistant L1210 (L1210, 96 h, L-1210/ MDR, P-glycoprotein (+), 10-fold resistance to Mitomycin C, 4-day drug exposure, MTT dye reduction, read-out: Activity (IC50)); 2.5 ng/mL (≈ 7.85 nM) in the experiment with Resistant L1210 (L1210 Leukemia Cells Resistant, continuous exposure, MTT dye assay, read-out: IC50 VALUES); 400 nM in the experiment on 205p14; 300 nM with LOVOp32. Also, in the experiment with Resistant L1210 (resistant L-1210/ versus L-1210/Murine Leukemia), the “Cross Resistance” value is “None”. The “Overall Response” value in the experiment with FRESH HUMAN TUMORS amounted to 51%; with Melanoma, 64%.
